These results are taken from the NIST ThermoML archive (doi:10.1021/acs.jced.5b00135).

Each structure is given as a SMILES string. Numbers after ± are expanded uncertainties.

For series [1] the following is noted: Crystal; DTA.
A short description of series [2]: Molar enthalpy of transition or fusion. As to conditions: Crystal; DSC.

For `C=CC(=O)NC(C)(C)C` [N-tert-butylacrylamide], in series [1], the Normal melting temperature was 128.50 ± 0.7 °C. Moreover, the “Molar enthalpy of transition or fusion” value in series [2] stood at 5.16 ± 0.263 kcal/mol.
